# Assay results published in patent publication US20260306460A1, “COMPOSITION FOR REMOVING AND INHIBITING SENESCENT CELLS, AND USES THEREOF” (LIFECEUTIX CO., LTD., priority 2023, published 2026).
# Columns and labels:
# [1] = tested on: senescent foreskin cells; assay: Survival of senescent human cells treated with supernatant (secreted fluid) from death-induced cells, Example 13; type: cell-based; conditions: Table 8; supernatant from dying senescent cells treated at 30, 90 or 270 μM (as Example 11); senescent treated cells
# Procedure: After 3 days, cell viability was measured using CellTiter-Glo Luminescent Cell Viability Assay (Promega) or light microscopy.
# During this additional culture, by checking with an optical microscope, etc., the medium supernatants containing secreted fluid from normally proliferating and senescent cells in which cell death was induced were obtained. The obtained medium supernatant was replaced with the medium of normally proliferating and senescent cells, respectively, and cell survival rate was measured after 3 days.
# [2] = tested on: naturally aged C57BL6J mice; assay: Hot plate joint pain test in naturally aged mice, Example 21-12, Table 27; type: in vivo, mouse; conditions: hot plate 55° C., untreated aged 6.9 (±1.8)
# Procedure: (§1) 22-month-old female C57BL6J mice (KRIBB Laboratory Animal Resource Center) were acclimated to the experimental environment for one week, after which the aged mice were randomly assigned to experimental and control groups. Eight-week-old, non-aged mice served as controls. LX-403 was mixed in a 10% ethanol solution of PEG400 and administered orally at a concentration of 25 mg/kg daily for 21 days, or administered to the skin, joints, or eyes at a concentration of 1 μM. LX-1801 was mixed in distilled water with 4% DMSO, 30% PEG300, and 5% Tween80 and administered to the skin, joints, or eyes at a concentration of 0.4 μM daily for 21 days. LX-2001 was mixed in PBS and administered to the skin, joints, or eyes at a concentration of […] daily for 21 days. LX-2002 was mixed in distilled water with 4% DMSO, 30% PEG300, and 5% Tween80 and administered to the skin, joints, or eyes at a concentration of 2 μM daily for 21 days. […] LX-2005 was mixed in distilled water with 4% DMSO, 30% PEG300, and 5% Tween80 and administered to the skin, joints, or eyes at a concentration of 90 μM daily for 21 days. LX-2007 was mixed in distilled water with 4% DMSO, 30% PEG300, and 5% Tween80 and administered to the skin, joints, or eyes at a concentration of 90 μM daily for 21 days. […] LX-3002 was mixed in distilled water with 4% DMSO, 30% PEG300, and 5% Tween80 and administered orally at a concentration of 10 mg/kg daily for 21 days. […] LX-5411 was mixed in 5% PBS and administered orally at a concentration of 10 mg/kg daily for 21 days or administered to the skin, joints, or eyes at a concentration of 3 μM. LX-5701 was mixed in PBS and administered orally at a concentration of 360 mg/kg daily for 21 days. LX-6807 was mixed in saline and administered intraperitoneally at a concentration of 1 mg/kg daily for 21 days. LX-2101 or LX-2102 was mixed in PBS solution with 5% DMSO and administered intraperitoneally at a concentration of 20 mg/kg or 10 mg/kg, respectively, daily for 21 days. The control group received only the solution in the same volume. After the end of drug administration, the methods described in each example below were performed.
# RNA was extracted from joint tissue as described in Example 7-2 of WO2023-085787 A1, and qRT-PCR was performed using the synthesized cDNA. […] To analyze joint pain due to joint aging, hotplate analysis was performed. Specifically, thermal pain thresholds were measured using a hot plate. After acclimating mice to a temperature of 30° C. for 10 minutes, the time required for hind paw licking or jumping responses to occur at 55° C. was measured. To prevent tissue damage, the response was measured for less than 30 seconds, and the average value was used from five measurements.
# [3] = tested on: naturally aged C57BL6J mice; type: in vivo, mouse; conditions: after 7 days; 6 mm punch dorsal skin wounds; naturally aged mice; untreated aged 3.2 (±0.4)
# [4] = tested on: naturally aged C57BL6J mice; assay: Cataract incidence in naturally aged mice, Example 21-15, Table 30; type: in vivo, mouse; conditions: orally twice a week, 360 mg/kg, until death, untreated aged 83
# Procedure: as §1
# Cataracts, which occur with age, are a disease that causes visual impairment due to clouding of the lens and are a major cause of blindness. The mice of Example 21-1 were treated with the test compound mixed in PBS orally twice a week at a concentration of 360 mg/kg. Cataract development was assessed biweekly until death.
# [5] = tested on: NaIO3-induced retinal degenerative C57BL6J mice; assay: NaIO3 retinal degeneration in mice (p16 mRNA, outer nuclear layer thickness), Example 29, Table 53; type: in vivo, mouse; conditions: daily for 21 days; for Outer nuclear layer thickness: untreated 27.4 (±1.3); for p16 mRNA: untreated 100%
# Procedure: Then, retinal degenerative diseases were induced for more than 7 days by intravenous administration of 20 mg/kg of NaIO3, an oxidizing agent that induces retinal pigment epithelial cell death and retinal degeneration. Mice with retinal degenerative diseases were randomly assigned to experimental and control groups. […] The control group received only the solution in the same volume. […] In addition, frozen sections of the other eye tissue were stained with H/E (Hematoxylin/Eosin), and the thickness of the outer nuclear layer (ORL) was observed under an optical microscope. […] The mRNA amount after aging induction was calculated as 100% and compared with the mRNA amount of p16 after treatment with the test compound.
# [6] = tested on: bleomycin-induced scleroderma C57BL6J mice; assay: Bleomycin scleroderma in mice (p16, COL1A1 mRNA, dermal thickness), Example 24-2, Table 48; type: in vivo, mouse; conditions: daily for 21 days; for p16 mRNA: untreated 100 (±8.8); for Col1a1 mRNA: untreated 100 (±13.2); for Dermal Thickness: untreated 459 (±38.7)
# Procedure: Eight-week-old male C57BL6J mice (KRIBB Laboratory Animal Resource Center) were acclimated to the experimental environment for one week. Then, 100 μl of the anticancer drug bleomyxin (1 mg/ml) was administered subcutaneously every other day to induce scleroderma for more than three weeks. Mice with scleroderma were randomly assigned to experimental and control groups. LX-403 was mixed with a 10% ethanol solution of PEG400 and administered orally at a concentration of 25 mg/kg daily for 21 days or administered directly to the skin at a concentration of 1 μM. LX-1801 was mixed with a solution of 4% DMSO, 30% PEG300, and 5% Tween80 in distilled water and administered subcutaneously at a concentration of 0.4 μM daily for 21 days. LX-2001 was mixed in PBS and administered intradermally at a concentration of 2 μM daily for 21 days. LX-2002 was mixed in distilled water with 4% DMSO, 30% PEG300, and 5% Tween80 and administered intradermally at a concentration of 2 μM daily for 21 days. […] LX-2005 was mixed in distilled water with 4% DMSO, 30% PEG300, and 5% Tween80 and administered intradermally at a concentration of 90 μM daily for 21 days. LX-2007 was mixed in distilled water with 4% DMSO, 30% PEG300, and 5% Tween80 and administered intradermally at a concentration of 90 μM daily for 21 days. […] LX-3002 was mixed with distilled water with 4% DMSO, 30% PEG300, 5% tween80 and administered orally at 10 mg/kg daily for 21 days. […] LX-5411 was mixed with 5% PBS and administered orally at 10 mg/kg daily for 21 days or subcutaneously at 3 μM. LX-5701 was mixed with PBS and administered orally at 360 mg/kg daily for 21 days. LX-6807 was mixed in saline and administered intraperitoneally at a concentration of 1 mg/kg daily for 21 days. The control group was administered only the solution in the same volume. After the end of drug administration, mice were sacrificed in the same manner as in Example 7-2 of WO2023-085787 A1, RNA was extracted from skin tissue, and the synthesized cDNA was used to perform and analyze the mRNA amounts of p16 and collagen (COL1A1) by qRT-PCR (quantitative real-time PCR). In addition, to measure the degree of bleomycin-induced skin hardening, skin frozen sections were stained with H/E (Hematoxylin/Eosin), and the thickness of the dermis was observed under an optical microscope.
Compound,Survival [1],Response time (s) [2],Wound size (mm) [3],Cataract incidence (%) [4] [%],Outer nuclear layer thickness [5],p16 mRNA [5],p16 mRNA [6],Col1a1 mRNA [6],Dermal Thickness [6]
"CC1(C)CC[C@]2(C(=O)O)CC[C@]3(C)C(=CC[C@@H]4[C@@]5(C)CC[C@H](O)C(C)(C)[C@@H]5CC[C@]43C)[C@@H]2C1 [LX-2003, Oleanolic acid]",64.2,5.1 (±0.7) s,2.6 (±0.6) mm,69,31.2 (±8.7) μm,52 (±6.3) %,72.4 (±5.8) %,73.8 (±3.5) %,411 (±81.3) μm
"C=C(C)[C@@H]1CC[C@]2(C(=O)O)CC[C@]3(C)[C@H](CC[C@@H]4[C@@]5(C)CC[C@H](O)C(C)(C)[C@@H]5CC[C@]43C)[C@@H]12 [LX-2005, Betulinic acid]",91.6,4.9 (±1.2) s,2.9 (±0.3) mm,72,30.9 (±3.8) μm,71 (±4.9) %,62.8 (±4.6) %,68.2 (±2.4) %,432 (±61.7) μm
"CC1(C)C=C2[C@H]3CC[C@@H]4[C@@]5(C)CCC(=O)C(C)(C)[C@@H]5CC[C@@]4(C)[C@]3(C)CC[C@@]2(C(=O)O)CC1 [LX-2007, Moronic acid]",95.7,5.8 (±0.5) s,3.0 (±0.2) mm,80,29.4 (±7.5) μm,75 (±5.9) %,75.1 (±3.5) %,80.5 (±4.0) %,421 (±83.6) μm
Tocofersolan [LX-3001],58.7,6.1 (±0.6) s,2.4 (±0.1) mm,73,34.1 (±2.1) μm,80 (±2.5) %,76.1 (±5.5) %,81.4 (±2.5) %,421 (±28.4) μm
